Results taken from ChEMBL document CHEMBL1155993, “5-(2-Pyrimidinyl)-imidazo[1,2-a]pyridines are antibacterial agents targeting the ATPase domains of DNA gyrase and topoisomerase IV” (Bioorg Med Chem Lett, 2009).
≈ marks a conversion by molar mass, not a printed value.

Tests used:
[1] = test system: Streptococcus pneumoniae; assay: Antibacterial activity against fluoroquinolone resistant Streptococcus pneumoniae SP-3765 by NCCLS method; type: functional
[2] = test system: Staphylococcus aureus; assay: Antibacterial activity against Staphylococcus aureus UC76 by NCCLS method; type: functional, organism-based; conditions: read-out: MIC
[3] = target: T1, ParE (Streptococcus pneumoniae, UniProt Q7X1P7); assay: Inhibition of Streptococcus pneumoniae SP-3 parE after 30 mins
T1 sequence (Q7X1P7 whole entry): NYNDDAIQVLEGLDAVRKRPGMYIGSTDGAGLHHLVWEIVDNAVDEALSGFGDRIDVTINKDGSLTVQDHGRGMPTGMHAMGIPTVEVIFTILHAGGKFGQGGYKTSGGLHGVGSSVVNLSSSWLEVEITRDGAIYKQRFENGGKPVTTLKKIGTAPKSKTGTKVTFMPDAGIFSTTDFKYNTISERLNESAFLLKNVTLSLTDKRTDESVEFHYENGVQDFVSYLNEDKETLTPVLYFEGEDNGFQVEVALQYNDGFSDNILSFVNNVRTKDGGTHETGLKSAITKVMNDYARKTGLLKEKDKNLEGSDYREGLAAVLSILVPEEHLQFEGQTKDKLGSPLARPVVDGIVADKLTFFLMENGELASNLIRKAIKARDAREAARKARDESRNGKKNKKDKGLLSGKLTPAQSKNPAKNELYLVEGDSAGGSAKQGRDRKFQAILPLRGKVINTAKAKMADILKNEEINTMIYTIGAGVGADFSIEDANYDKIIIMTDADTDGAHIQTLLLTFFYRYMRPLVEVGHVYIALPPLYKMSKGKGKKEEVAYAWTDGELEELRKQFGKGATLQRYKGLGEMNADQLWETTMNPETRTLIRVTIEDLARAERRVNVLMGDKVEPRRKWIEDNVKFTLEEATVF

[4] = test system: Staphylococcus aureus; assay: Antibacterial activity against methicillin resistant Staphylococcus aureus SA-1417 by NCCLS method; type: functional
[5] = target: DNA gyrase subunit B (Streptococcus pneumoniae serotype 4 (strain ATCC BAA-334 / TIGR4), UniProt P0A4L9); assay: Inhibition of Streptococcus pneumoniae SP-3 gyrB by enzyme coupled phosphate assay
[6] = test system: Streptococcus pneumoniae; assay: Antibacterial activity against Streptococcus pneumoniae SP-3 by NCCLS method; type: functional
[7] = test system: Streptococcus pyogenes; assay: Antibacterial activity against Streptococcus pyogenes SP1-1 by NCCLS method; type: functional

DNA gyrase subunit B, sequence (P0A4L9 whole entry): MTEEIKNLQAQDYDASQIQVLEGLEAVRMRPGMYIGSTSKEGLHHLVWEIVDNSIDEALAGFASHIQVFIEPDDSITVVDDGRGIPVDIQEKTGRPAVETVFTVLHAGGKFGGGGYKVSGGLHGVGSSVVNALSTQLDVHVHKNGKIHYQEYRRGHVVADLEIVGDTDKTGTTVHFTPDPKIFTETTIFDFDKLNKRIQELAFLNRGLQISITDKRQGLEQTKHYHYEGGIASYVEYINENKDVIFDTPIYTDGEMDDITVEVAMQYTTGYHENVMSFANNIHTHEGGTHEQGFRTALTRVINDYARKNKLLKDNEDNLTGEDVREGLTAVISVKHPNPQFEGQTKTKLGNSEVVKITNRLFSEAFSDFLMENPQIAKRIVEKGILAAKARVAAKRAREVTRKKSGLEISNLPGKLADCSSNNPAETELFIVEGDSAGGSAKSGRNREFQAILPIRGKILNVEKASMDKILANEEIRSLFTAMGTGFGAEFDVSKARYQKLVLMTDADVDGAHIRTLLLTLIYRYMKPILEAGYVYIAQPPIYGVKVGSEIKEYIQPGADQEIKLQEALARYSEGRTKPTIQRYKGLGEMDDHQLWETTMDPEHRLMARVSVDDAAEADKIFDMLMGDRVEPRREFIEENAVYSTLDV

| Compound | MIC [1] | MIC [2] | IC50 [3] | MIC [4] | IC50 [5] | MIC [6] | MIC [7] |
| --- | --- | --- | --- | --- | --- | --- | --- |
| Cc1cnc(-c2cc(-c3cccnc3)cc3nc(NC(=O)N(C)C(F)(F)F)cn23)nc1 | 0.125 µg/mL (≈ 0.292 µM) | 8 µg/mL (≈ 18.7 µM) | 504 nM | 4 µg/mL (≈ 9.36 µM) | 368 nM | 0.25 µg/mL (≈ 0.585 µM) | 16 µg/mL (≈ 37.4 µM) |
| CCCCNC(=O)Nc1cn2c(-c3ncc(C)cn3)cc(-c3cccnc3)cc2n1 | 0.125 µg/mL (≈ 0.311 µM) | 8 µg/mL (≈ 19.9 µM) | 4750 nM | – | 261 nM | 2 µg/mL (≈ 4.98 µM) | 2 µg/mL (≈ 4.98 µM) |
| Cc1cnc(-c2cc(-c3cccnc3)cc3nc(NC(=O)NC4CC4)cn23)nc1 | 0.25 µg/mL (≈ 0.649 µM) | 64 µg/mL (≈ 166 µM) | 571 nM | > 64 µg/mL | 295 nM | 1 µg/mL (≈ 2.59 µM) | 16 µg/mL (≈ 41.5 µM) |
| CCNC(=O)Nc1cn2c(-c3ncc(C)cn3)cc(-c3cncnc3)cc2n1 | 0.06 µg/mL (≈ 0.16 µM) | 0.25 µg/mL (≈ 0.668 µM) | 258 nM | 1 µg/mL (≈ 2.67 µM) | 36 nM | 0.25 µg/mL (≈ 0.668 µM) | 0.5 µg/mL (≈ 1.34 µM) |
| CCCn1ccc(-c2cc(-c3ncc(C)cn3)n3cc(NC(=O)NCC)nc3c2)cc1=O | 0.06 µg/mL (≈ 0.139 µM) | 0.125 µg/mL (≈ 0.29 µM) | 1020 nM | 0.25 µg/mL (≈ 0.579 µM) | 97 nM | 0.06 µg/mL (≈ 0.139 µM) | 0.25 µg/mL (≈ 0.579 µM) |
| CCNC(=O)Nc1cn2c(-c3ncc(C)cn3)cc(-c3ccn(CCOC)c(=O)c3)cc2n1 | 0.125 µg/mL (≈ 0.279 µM) | 0.06 µg/mL (≈ 0.134 µM) | 1640 nM | 0.25 µg/mL (≈ 0.559 µM) | 401 nM | 0.06 µg/mL (≈ 0.134 µM) | 0.06 µg/mL (≈ 0.134 µM) |
| CCNC(=O)Nc1cn2c(-c3ncc(F)cn3)cc(-c3cccnc3)cc2n1 | 0.125 µg/mL (≈ 0.331 µM) | 1 µg/mL (≈ 2.65 µM) | 364 nM | – | 56 nM | 0.125 µg/mL (≈ 0.331 µM) | 0.5 µg/mL (≈ 1.32 µM) |
| CCNC(=O)Nc1cn2c(-c3ncc(C)cn3)cc(-c3cnc(N4CCCC4)nc3)cc2n1 | 0.06 µg/mL (≈ 0.135 µM) | 0.5 µg/mL (≈ 1.13 µM) | 366 nM | – | 244 nM | 0.125 µg/mL (≈ 0.282 µM) | 0.25 µg/mL (≈ 0.564 µM) |
| CCNC(=O)Nc1cn2c(-c3ncccn3)cc(-c3ccc(C)nc3)cc2n1 | 0.06 µg/mL (≈ 0.161 µM) | 0.25 µg/mL (≈ 0.669 µM) | 119 nM | – | 44 nM | 0.06 µg/mL (≈ 0.161 µM) | 0.25 µg/mL (≈ 0.669 µM) |
| CCNC(=O)Nc1cn2c(-c3ncc(C)cn3)cc(-c3cnc(OC)nc3)cc2n1 | 16 µg/mL (≈ 39.6 µM) | 16 µg/mL (≈ 39.6 µM) | 3640 nM | > 64 µg/mL | 132 nM | 16 µg/mL (≈ 39.6 µM) | 32 µg/mL (≈ 79.1 µM) |
| CNC(=O)Nc1cn2c(-c3ncc(C)cn3)cc(-c3cccnc3)cc2n1 | 0.25 µg/mL (≈ 0.696 µM) | 4 µg/mL (≈ 11.1 µM) | 629 nM | – | 92 nM | 1 µg/mL (≈ 2.78 µM) | 2 µg/mL (≈ 5.56 µM) |
| CCNC(=O)Nc1cn2c(-c3ncccn3)cc(-c3cnc(N(C)C)nc3)cc2n1 | 0.125 µg/mL (≈ 0.31 µM) | 1 µg/mL (≈ 2.48 µM) | 611 nM | – | 137 nM | 0.125 µg/mL (≈ 0.31 µM) | 0.25 µg/mL (≈ 0.62 µM) |
| CCNC(=O)Nc1cn2c(-c3ncccn3)cc(-c3cncnc3)cc2n1 | 0.125 µg/mL (≈ 0.347 µM) | 0.5 µg/mL (≈ 1.39 µM) | 280 nM | – | 75 nM | 0.125 µg/mL (≈ 0.347 µM) | 0.5 µg/mL (≈ 1.39 µM) |
| CCNC(=O)Nc1cn2c(-c3nccc(C(=O)OC)n3)cc(-c3cccnc3)cc2n1 | 16 µg/mL (≈ 38.3 µM) | 8 µg/mL (≈ 19.2 µM) | 911 nM | 8 µg/mL (≈ 19.2 µM) | 52 nM | 16 µg/mL (≈ 38.3 µM) | 32 µg/mL (≈ 76.7 µM) |
| CCNC(=O)Nc1cn2c(-c3ncc(S(C)(=O)=O)cn3)cc(-c3cccnc3)cc2n1 | 16 µg/mL (≈ 36.6 µM) | 64 µg/mL (≈ 146 µM) | 1830 nM | – | 433 nM | 8 µg/mL (≈ 18.3 µM) | 64 µg/mL (≈ 146 µM) |
